This assay addresses T1, ASGP receptor (biotinylated ASGPR) (Homo sapiens, UniProt P07306).
T1 construct: biotin (biotinylated)
T1 sequence (P07306 1-291): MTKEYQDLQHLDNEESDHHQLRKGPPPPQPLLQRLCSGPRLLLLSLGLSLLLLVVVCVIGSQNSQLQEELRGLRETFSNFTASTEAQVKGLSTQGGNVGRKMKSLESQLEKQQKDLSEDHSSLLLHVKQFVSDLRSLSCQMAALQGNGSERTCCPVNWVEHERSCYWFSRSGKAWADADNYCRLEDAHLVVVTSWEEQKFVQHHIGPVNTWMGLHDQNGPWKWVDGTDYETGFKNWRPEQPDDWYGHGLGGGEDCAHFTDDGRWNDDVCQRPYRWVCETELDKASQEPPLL
Format: binding. The settings on record: SPR, Biacore 8K, 25° C., Table 1A, read-out: ASGPR KD.

What is called Kd is the free concentration of one partner at which half of the binding sites on the other are occupied at equilibrium, for simple one-to-one binding.

Each structure is given as a SMILES string. Like-named read-outs stand apart in the source and are kept apart here.

With `O=C(O)COc1ccc(CC(=O)NC[C@H]2OC[C@H](Nc3cncc(C(F)(F)F)n3)[C@@H](O)[C@H]2O)cc1` [A1, 2-(4-(2-((((2R,3R,4R,5S)-3,4-dihydroxy-5-((6-(trifluoromethyl)pyrazin-2-yl)amino)tetrahydro-2H-pyran-2-yl)methyl)amino)-2-oxoethyl)phenoxy)acetic acid], the Kd was less than 10 µM.

As to `O=C(NC[C@H]1OC[C@H](Nc2cncc(C(F)(F)F)n2)[C@@H](O)[C@H]1O)c1ccc2c(c1)CCNC2` [A3, N-(((2R,3R,4R,5S)-3,4-dihydroxy-5-((6-(trifluoromethyl)pyrazin-2-yl)amino)tetrahydro-2H-pyran-2-yl)methyl)-1,2,3,4-tetrahydroisoquinoline-6-carboxamide], the dissociation constant (Kd) was less than 10 µM.

With `O=C(NC[C@H]1OC[C@H](Nc2cncc(C(F)(F)F)n2)[C@@H](O)[C@H]1O)c1ncccn1` [A4, N-(((2R,3R,4R,5S)-3,4-dihydroxy-5-((6-(trifluoromethyl)pyrazin-2-yl)amino)tetrahydro-2H-pyran-2-yl)methyl)pyrimidine-2-carboxamide], the Kd was less than 10 µM.

Take `COCCO[C@H]1O[C@H](CO)[C@H](O)[C@H](O)[C@H]1Nc1cncc(C(F)(F)F)n1` [A5]: the Kd is less than 10 µM.

`O=C(NC[C@H]1OC[C@H](Nc2cncc(C(F)(F)F)n2)[C@@H](O)[C@H]1O)c1ccc2[nH]cnc2c1` [A6, N-(((2R,3R,4R,5S)-3,4-dihydroxy-5-((6-(trifluoromethyl)pyrazin-2-yl)amino)tetrahydro-2H-pyran-2-yl)methyl)-1H-benzo[d]imidazole-5-carboxamide]: the Kd was less than 10 µM.

For the molecule `O=C(NC[C@H]1OC[C@H](Nc2cncc(C(F)(F)F)n2)[C@@H](O)[C@H]1O)c1ccc(-c2ccccc2)nc1` [A7, N-(((2R,3R,4R,5S)-3,4-dihydroxy-5-((6-(trifluoromethyl)pyrazin-2-yl)amino)tetrahydro-2H-pyran-2-yl)methyl)-6-phenylnicotinamide], the dissociation constant (Kd) was less than 10 µM.

For `O=C(NC[C@H]1OC[C@H](Nc2cncc(C(F)(F)F)n2)[C@@H](O)[C@H]1O)c1cnc2ccccc2c1` [A8, N-(((2R,3R,4R,5S)-3,4-dihydroxy-5-((6-(trifluoromethyl)pyrazin-2-yl)amino)tetrahydro-2H-pyran-2-yl)methyl)quinoline-3-carboxamide], the Kd is less than 10 µM.

As for `O[C@@H]1[C@H](O)[C@@H](Nc2cncc(C(F)(F)F)n2)CO[C@@H]1CN1CCN(Cc2ccccc2)CC1` [A9, (2R,3R,4R,5S)-2-((4-benzylpiperazin-1-yl)methyl)-5-((6-(trifluoromethyl)pyrazin-2-yl)amino)tetrahydro-2H-pyran-3,4-diol], the Kd was less than 10 µM.

Take `O=C(NC[C@H]1OC[C@H](Nc2cncc(C(F)(F)F)n2)[C@@H](O)[C@H]1O)c1ccc(-c2ccccc2)cc1` [A10, N-(((2R,3R,4R,5S)-3,4-dihydroxy-5-((6-(trifluoromethyl)pyrazin-2-yl)amino)tetrahydro-2H-pyran-2-yl)methyl)-[1,1′-biphenyl]-4-carboxamide]: the Kd is less than 10 µM.

With `O=C(NC[C@H]1OC[C@H](Nc2cncc(C(F)(F)F)n2)[C@@H](O)[C@H]1O)c1ccc2occc2c1` [A11, N-(((2R,3R,4R,5S)-3,4-dihydroxy-5-((6-(trifluoromethyl)pyrazin-2-yl)amino)tetrahydro-2H-pyran-2-yl)methyl)benzofuran-5-carboxamide], the dissociation constant (Kd) was less than 10 µM.

Take `O=C(CC12CC3CC(CC(C3)C1)C2)NC[C@H]1OC[C@H](Nc2cncc(C(F)(F)F)n2)[C@@H](O)[C@H]1O` [A12, 2-((3R,5R,7R)-adamantan-1-yl)-N-(((2R,3R,4R,5S)-3,4-dihydroxy-5-((6-(trifluoromethyl)pyrazin-2-yl)amino)tetrahydro-2H-pyran-2-yl)methyl)acetamide]: the Kd was less than 10 µM.

`O=C(NC[C@H]1OC[C@H](Nc2cncc(C(F)(F)F)n2)[C@@H](O)[C@H]1O)c1nc2ccccc2[nH]1` [A13, N-(((2R,3R,4R,5S)-3,4-dihydroxy-5-((6-(trifluoromethyl)pyrazin-2-yl)amino)tetrahydro-2H-pyran-2-yl)methyl)-1H-benzo[d]imidazole-2-carboxamide]: the Kd is less than 10 µM.

`O=C(NC[C@H]1OC[C@H](Nc2cncc(C(F)(F)F)n2)[C@@H](O)[C@H]1O)c1cc2ccccc2[nH]1` [A14, N-(((2R,3R,4R,5S)-3,4-dihydroxy-5-((6-(trifluoromethyl)pyrazin-2-yl)amino)tetrahydro-2H-pyran-2-yl)methyl)-1H-indole-2-carboxamide]: the Kd was less than 10 µM.

`O=C(NC[C@H]1OC[C@H](Nc2cncc(C(F)(F)F)n2)[C@@H](O)[C@H]1O)C12CC3CC(CC(C3)C1)C2` [A15, (1S,3S)—N-(((2R,3R,4R,5S)-3,4-dihydroxy-5-((6-(trifluoromethyl)pyrazin-2-yl)amino)tetrahydro-2H-pyran-2-yl)methyl)adamantane-1-carboxamide]: the Kd was less than 10 µM.

With `O=C(O)c1ccc(N2CCC(CN3CCN(C[C@H]4OC[C@H](Nc5cncc(C(F)(F)F)n5)[C@@H](O)[C@H]4O)CC3)CC2)nn1` [A16, 6-(4-((4-(((2R,3R,4R,5S)-3,4-dihydroxy-5-((6-(trifluoromethyl)pyrazin-2-yl)amino)tetrahydro-2H-pyran-2-yl)methyl)piperazin-1-yl)methyl)piperidin-1-yl)pyridazine-3-carboxylic acid], the Kd is less than 10 µM.

For `O=C(NC[C@H]1OC[C@H](Nc2cncc(C(F)(F)F)n2)[C@@H](O)[C@H]1O)c1ccc2ncncc2c1` [A17, N-(((2R,3R,4R,5S)-3,4-dihydroxy-5-((6-(trifluoromethyl)pyrazin-2-yl)amino)tetrahydro-2H-pyran-2-yl)methyl)quinazoline-6-carboxamide], the Kd is less than 10 µM.

For `O=C(NC[C@H]1OC[C@H](Nc2cncc(C(F)(F)F)n2)[C@@H](O)[C@H]1O)C1C[C@@H]2CC[C@H]1C2` (stereo partly drawn) [A18, (1S,4R)—N-(((2R,3R,4R,5S)-3,4-dihydroxy-5-((6-(trifluoromethyl)pyrazin-2-yl)amino)tetrahydro-2H-pyran-2-yl)methyl)bicyclo[2.2.1]heptane-2-carboxamide], the Kd was less than 10 µM.

With `O[C@@H]1[C@H](O)[C@@H](Nc2cncc(C(F)(F)F)n2)CO[C@@H]1CNc1ncccn1` [A19, (2R,3R,4R,5S)-2-((pyrimidin-2-ylamino)methyl)-5-((6-(trifluoromethyl)pyrazin-2-yl)amino)tetrahydro-2H-pyran-3,4-diol], the Kd is less than 10 µM.

On to `O=C(NC[C@H]1OC[C@H](Nc2cncc(C(F)(F)F)n2)[C@@H](O)[C@H]1O)c1cnccn1` [A20, N-(((2R,3R,4R,5S)-3,4-dihydroxy-5-((6-(trifluoromethyl)pyrazin-2-yl)amino)tetrahydro-2H-pyran-2-yl)methyl)pyrazine-2-carboxamide], for which the Kd was less than 10 µM.

In the case of `N#CC[C@H]1OC[C@H](Nc2cncc(C(F)(F)F)n2)[C@@H](O)[C@H]1O` [A21, 2-((2R,3R,4R,5S)-3,4-dihydroxy-5-((6-(trifluoromethyl)pyrazin-2-yl)amino)tetrahydro-2H-pyran-2-yl)acetonitrile], the Kd is less than 10 µM.

On to `O=C(NC[C@H]1OC[C@H](Nc2cncc(C(F)(F)F)n2)[C@@H](O)[C@H]1O)c1cnc[nH]1` [A22, N-(((2R,3R,4R,5S)-3,4-dihydroxy-5-((6-(trifluoromethyl)pyrazin-2-yl)amino)tetrahydro-2H-pyran-2-yl)methyl)-1H-imidazole-5-carboxamide], for which the Kd was less than 10 µM.

On to `O=C(O)CNC(COCCC(=O)NC[C@H]1OC[C@H](Nc2cncc(C(F)(F)F)n2)[C@@H](O)[C@H]1O)COCCC(=O)NC[C@H]1OC[C@H](Nc2cncc(C(F)(F)F)n2)[C@@H](O)[C@H]1O` [A23, (1,15-bis((2R,3R,4R,5S)-3,4-dihydroxy-5-((6-(trifluoromethyl)pyrazin-2-yl)amino)tetrahydro-2H-pyran-2-yl)-3,13-dioxo-6,10-dioxa-2,14-diazapentadecan-8-yl)glycine], for which the Kd (numeric bound) is more than 20 µM.

In the case of `O=C(NC[C@H]1OC[C@H](Nc2cncc(C(F)(F)F)n2)[C@@H](O)[C@H]1O)c1cccc(F)c1` [A24, N-(((2R,3R,4R,5S)-3,4-dihydroxy-5-((6-(trifluoromethyl)pyrazin-2-yl)amino)tetrahydro-2H-pyran-2-yl)methyl)-3-fluorobenzamide], the equilibrium dissociation constant (Kd) was less than 10 µM.

For the molecule `O=C(NC[C@H]1OC[C@H](Nc2cncc(C(F)(F)F)n2)[C@@H](O)[C@H]1O)c1cncnc1` [A25, N-(((2R,3R,4R,5S)-3,4-dihydroxy-5-((6-(trifluoromethyl)pyrazin-2-yl)amino)tetrahydro-2H-pyran-2-yl)methyl)pyrimidine-5-carboxamide], the Kd was less than 10 µM.

With `O=C(O)CNC[C@H]1OC[C@H](Nc2cncc(C(F)(F)F)n2)[C@@H](O)[C@H]1O` [A26, (((2R,3R,4R,5S)-3,4-dihydroxy-5-((6-(trifluoromethyl)pyrazin-2-yl)amino)tetrahydro-2H-pyran-2-yl)methyl)glycine], the equilibrium dissociation constant (Kd) was less than 10 µM.

As for `O=C(NC[C@H]1OC[C@H](Nc2cncc(C(F)(F)F)n2)[C@@H](O)[C@H]1O)c1ccnnc1` [A27, N-(((2R,3R,4R,5S)-3,4-dihydroxy-5-((6-(trifluoromethyl)pyrazin-2-yl)amino)tetrahydro-2H-pyran-2-yl)methyl)pyridazine-4-carboxamide], the Kd is less than 10 µM.

For `O[C@@H]1[C@H](O)[C@@H](Nc2cncc(C(F)(F)F)n2)CO[C@@H]1CNc1cccnc1` [A28, (2R,3R,4R,5S)-2-((pyridin-3-ylamino)methyl)-5-((6-(trifluoromethyl)pyrazin-2-yl)amino)tetrahydro-2H-pyran-3,4-diol], the Kd was less than 10 µM.

The values are drawn from patent publication US20260083851A1 (AVILAR THERAPEUTICS, INC., priority 2022, published 2026).
